Values quoted from earlier work in US6996473B2, “Method for screening and producing compound libraries” (Lion Bioscience AG, priority 1998, dated 2006).
Counter-ions that a name gives are not always drawn. Like-named read-outs stand apart in the source and are kept apart here.

Legend:
rabbit intestinal tissue = conditions: intestinal transport mechanism represented by the standard
[1] = Stomach

Question: For `OC[C@@H](O)[C@@H](O)[C@H](O)[C@H](O)CO` [mannitol], which Transport mechanism (rabbit intestinal tissue) is on record?
Answer: Passive Paracellular

Question: Which Transport mechanism (rabbit intestinal tissue) does the source give for `O=C[C@H](O)[C@@H](O)[C@H](O)[C@H](O)CO` [D-glucose] here?
Answer: Carrier-mediated Influx

Question: For `Nc1nc(O)c2ncn(COC(CO)CO)c2n1` [Gancyclovir, 9-(1,3-dihydroxy-2-propoxymethyl) guanine, monosodium salt], which Solubility [1] is on record?
Answer: 31 mg/mL

Question: And the Cmax (Clinical 1505a)?
Answer: 550 ng/mL

Question: What about the Tmax (Clinical 1505a) of the same compound?
Answer: 1.43 h

Question: And the Cmax (Clinical 1505b)?
Answer: 590 ng/mL

Question: And the Tmax (Clinical 1505b)?
Answer: 1.43 h

Question: And the “bioavailability of fasted patients in clinical trials” value (fasted patients, oral)?
Answer: 3-20%
